Test results as given in patent US4011390A, “Semi-synthetic aminocyclitol aminoglycoside antibiotics and methods for the preparation thereof” (Schering-Plough Corporation, priority 1974, dated 1977).
Values after ≈ are worked out from the molar mass of the structure shown. Where two headings read alike, the source gives them in different places.

Key:
Assay type in all cases: cell-based
Providence [1] = assay: Activity against resistant strains; details: gentamicin, sisomicin, tobramycin resistant Providence
Text: (§1) In many instances, bacterial resistance is related to the organism's ability to inactivate the antibacterial agent via enzymatic (biochemical) means. Some species inactivate aminoglycosides antibiotics by acetylating the antibacterial agent, others by phosphorylation and still others by adenylylating. Some strains have several different inactivating capabilities. Further, the inactivation reactions occur at a specific site or sites on the antibacterial agent. We have shown by the compounds of this invention that alteration of sites on the antibiotic molecule not directly involved in inactivation processes can nevertheless frustrate these inactivation processes. […] The tables illustrate that the mutamicins include compounds which are active against strains having different mechanisms of inactivation of gentamicin, sisomicin, kanamycin, neomycin and torbramycin. For example, some mutamicins are effective against strains of E. coli which contain adenylylating R factors such as E. coli W677/R55 and LA290/R55. These E. coli strains are resistant to gentamicin, sisomicin and torbramycin. Some are also effective against gentamicin, tobramycin and kanamycin resistant adenylylating strains of Klebsiella pneumoniae and also kanamycin, neomycin phosphorylating strains of E. coli and Klebsiella pneumoniae. Further, some mutamicins are effective against gentamicin and sisomicin resistant strains of Pseudomonas aeruginosa and gentamicin, sisomicin, tobramycin resistant Providence which is sensitive to kanamycin. Thus, the mutamicins afford a means for combatting strains of bacteria which have already developed a variety of mechanisms for resisting the action of many of the antibiotics known in the art or currently in commercial use.

Pseudomonas aeruginosa [2] = assay: Activity against resistant strains; details: gentamicin and sisomicin resistant strains
Text: as §1

E. coli = assay: Activity against resistant strains; details: E. coli W677/R55 and LA290/R55
Text: as §1

Staphylococcus aureus [3] = assay: Disc test, Bauer-Kirby technique with 10 Mcg. discs; details: Staphylococcus aureus
Text: (§2) Disc Test Results (Replicate Tests) With The Mutamicins, Sisomicin and
(§3) Bauer-Kirby Technique^1 With 10 Mcg. Discs
(§4) ^1 Bauer, Kirby, Sherris and Turck, American Journal of Clinical

Pseudomonas aeruginosa [4] = assay: as above; details: Pseudomonas aeruginosa
Text: as §2, §3, §4

Klebsiella pneumoniae [5] = assay: as above; details: Klebsiella pneumoniae
Text: as §2, §3, §4

Escherichia coli [6] = assay: as above; details: Escherichia coli, read-out: Zone Size
Text: as §2, §3, §4

Bacillus subtilis [7] = assay: as above; details: Bacillus subtilis, ATCC6633, strain ATCC 6633
Text: as §2, §3, §4

Streptococcus pyogenes [8] = assay: as above; details: Streptococcus pyogenes
Text: as §2, §3, §4

Providence 164 = assay: as above; details: strain 164
Text: as §2, §3, §4

Staphylococcus aureus [9] = assay: MIC in Mueller-Hinton Broth pH 7.2
Text: (§5) In vitro Activity of the Mutamicins and Sisomicin
(§6) MIC's in Mueller-Hinton Broth pH 7.2

Proteus rettgeri = assay: MIC in Mueller-Hinton Broth pH 7.2; details: Providencia rettgeri, pH 7.2
Text: as §5, §6

Providence [10] = assay: MIC in Mueller-Hinton Broth pH 7.2; details: strain (Genta. R.) 164
Text: as §5, §6

Pseudomonas aeruginosa [11] = assay: MIC in Mueller-Hinton Broth pH 7.2
Text: as §5, §6

Candida albicans = assay: MIC in Mueller-Hinton Broth pH 7.2; details: pH 7.2
Text: as §5, §6

Klebsiella pneumoniae [12] = assay: MIC in Mueller-Hinton Broth pH 7.2
Text: as §5, §6

Escherichia coli [13] = assay: MIC in Mueller-Hinton Broth pH 7.2
Text: as §5, §6

Salmonella typhimurium = assay: MIC in Mueller-Hinton Broth pH 7.2; details: Salmonella enterica, strain B
Text: as §5, §6

Bacillus subtilis [14] = assay: MIC in Mueller-Hinton Broth pH 7.2; details: ATCC6633, strain ATCC 6633
Text: as §5, §6

Aspergillus niger = assay: MIC in Mueller-Hinton Broth pH 7.2; details: pH 7.2
Text: as §5, §6

Trichophyton rubrum = assay: MIC in Mueller-Hinton Broth pH 7.2; details: pH 7.2
Text: as §5, §6

Streptococcus pyogenes [15] = assay: MIC in Mueller-Hinton Broth pH 7.2
Text: as §5, §6

Serratia = assay: MIC in Mueller-Hinton Broth pH 7.2; details: pH 7.2
Text: as §5, §6

CN[C@@H]1[C@@H](O)[C@@H](O[C@@H]2[C@@H](O)[C@H](O[C@H]3OC(CN)=CC[C@H]3N)[C@@H](N)C[C@H]2N)OC[C@]1(C)O [Sisomicin, O-2,6-Diamino-2,3,4,6-tetradeoxy-α-D-glycero-hex-4-eno-pryanosyl(1→4)-O-[3-deoxy-4-C-methyl-3-(methylamino)-B-L-arabinopyranosyl(1→6)] -2-deoxy-D-streptamine, reference compound]
activity against resistant Providence (Providence [1]): resistant | activity against resistant strains (Pseudomonas aeruginosa [2]): resistant | activity against strains containing adenylylating R factors (E. coli): resistant | zone of inhibition at 10 µg/disc (Staphylococcus aureus [3]; ATCC6538P, strain ATCC 6538P): 25 mm | zone of inhibition at 10 µg/disc (Staphylococcus aureus [3]; strain 59N): 28 mm | zone of inhibition at 10 µg/disc (Staphylococcus aureus [3]; strain Wood): 29 mm | zone of inhibition at 10 µg/disc (Staphylococcus aureus [3]; strain Ziegler): 26 mm | zone of inhibition at 10 µg/disc (Pseudomonas aeruginosa [4]; strain Capetown 18): 14 mm | zone of inhibition at 10 µg/disc (Pseudomonas aeruginosa [4]; strain D-2): 24 mm | zone of inhibition at 10 µg/disc (Pseudomonas aeruginosa [4]; strain St. Michael 413): 26 mm | zone of inhibition at 10 µg/disc (Pseudomonas aeruginosa [4]; strain St. Michael 762): 25 mm | zone of inhibition at 10 µg/disc (Pseudomonas aeruginosa [4]; strain St. Michael 1262): 26 mm | zone of inhibition at 10 µg/disc (Pseudomonas aeruginosa [4]; strain St. Michael 1395): 26 mm | zone of inhibition at 10 µg/disc (Pseudomonas aeruginosa [4]; strain Stone 20): 27 mm | zone of inhibition at 10 µg/disc (Pseudomonas aeruginosa [4]; strain Stone 39): 25 mm | zone of inhibition at 10 µg/disc (Pseudomonas aeruginosa [4]; strain Stone 130): 14 mm | zone of inhibition at 10 µg/disc (Pseudomonas aeruginosa [4]; strain Stone 138): 10 mm | zone of inhibition at 10 µg/disc (Klebsiella pneumoniae [5]; strain Ad 17): 22 mm | zone of inhibition at 10 µg/disc (Klebsiella pneumoniae [5]; strain Ad 18): 23 mm | zone of inhibition at 10 µg/disc (Klebsiella pneumoniae [5]; strain Georgetown 3020): 13 mm | zone of inhibition at 10 µg/disc (Klebsiella pneumoniae [5]; strain Georgetown 3694): 14 mm | zone of inhibition at 10 µg/disc (Escherichia coli [6]; ATCC10536, strain ATCC 10536, 10 Mcg. discs): 28 mm | zone of inhibition at 10 µg/disc (Escherichia coli [6]): 15 mm | zone of inhibition at 10 µg/disc (Escherichia coli [6]; strain 589, 10 Mcg. discs): 24 mm | zone of inhibition at 10 µg/disc (Escherichia coli [6]; strain JR88, 10 Mcg. discs): 11 mm | zone of inhibition at 10 µg/disc (Escherichia coli [6]; strain JR90, 10 Mcg. discs): 0 mm | zone of inhibition at 10 µg/disc (Escherichia coli [6]; strain LA290/R55, 10 Mcg. discs): 13 mm | zone of inhibition at 10 µg/disc (Escherichia coli [6]; strain Swidinsky 4195, 10 Mcg. discs): 24 mm | zone of inhibition at 10 µg/disc (Bacillus subtilis [7]): 31 mm | zone of inhibition at 10 µg/disc (Streptococcus pyogenes [8]; strain B-Cruz): 15 mm | zone of inhibition at 10 µg/disc (Streptococcus pyogenes [8]; strain C): 13 mm | zone of inhibition at 10 µg/disc (Providence 164): 13 mm | MIC (Staphylococcus aureus [9]; ATCC6538P, pH 7.2, strain ATCC 6538P): 0.08 µg/mL (≈ 0.179 µM) | MIC (Staphylococcus aureus [9]; pH 7.2, strain 59N): 0.03 µg/mL (≈ 0.067 µM) | MIC (Staphylococcus aureus [9]; pH 7.2, strain 1118): 3 µg/mL (≈ 6.7 µM) | MIC (Staphylococcus aureus [9]; pH 7.2, strain Grey): 3 µg/mL (≈ 6.7 µM) | MIC (Staphylococcus aureus [9]; pH 7.2, strain Wood): 0.03 µg/mL (≈ 0.067 µM) | MIC (Staphylococcus aureus [9]; pH 7.2, strain Ziegler): 0.08 µg/mL (≈ 0.179 µM) | MIC (Proteus rettgeri): 0.8 µg/mL (≈ 1.79 µM) | MIC (Providence [10]): > 25 µg/mL | MIC (Pseudomonas aeruginosa [11]; pH 7.2): > 25 µg/mL | MIC (Pseudomonas aeruginosa [11]; pH 7.2, strain 762, Mueller-Hinton Broth pH 7.2, read-out: MIC): 0.3 µg/mL (≈ 0.67 µM) | MIC (Pseudomonas aeruginosa [11]; pH 7.2, strain 1262, Mueller-Hinton Broth pH 7.2, read-out: MIC): 0.8 µg/mL (≈ 1.79 µM) | MIC (Pseudomonas aeruginosa [11]; pH 7.2, strain 1395, Mueller-Hinton Broth pH 7.2, read-out: MIC): 0.08 µg/mL (≈ 0.179 µM) | MIC (Pseudomonas aeruginosa [11]; pH 7.2, strain D-2, Mueller-Hinton Broth pH 7.2, read-out: MIC): 0.08 µg/mL (≈ 0.179 µM) | MIC (Pseudomonas aeruginosa [11]; pH 7.2, strain Genta. acetyl Capetown 18, Mueller-Hinton Broth pH 7.2, read-out: MIC): 7.5 µg/mL (≈ 16.8 µM) | MIC (Pseudomonas aeruginosa [11]; pH 7.2, strain Genta. acetyl Stone 130, Mueller-Hinton Broth pH 7.2, read-out: MIC): 17.5 µg/mL (≈ 39.1 µM) | MIC (Pseudomonas aeruginosa [11]; pH 7.2, strain NRRL B3223, Mueller-Hinton Broth pH 7.2, read-out: MIC): 0.08 µg/mL (≈ 0.179 µM) | MIC (Pseudomonas aeruginosa [11]; pH 7.2, strain Stone 20, Mueller-Hinton Broth pH 7.2, read-out: MIC): 0.3 µg/mL (≈ 0.67 µM) | MIC (Pseudomonas aeruginosa [11]; pH 7.2, strain Stone 39, Mueller-Hinton Broth pH 7.2, read-out: MIC): 0.8 µg/mL (≈ 1.79 µM) | MIC (Pseudomonas aeruginosa [11]; pH 7.2, strain Stone 138, Mueller-Hinton Broth pH 7.2, read-out: MIC): 7.5 µg/mL (≈ 16.8 µM) | MIC (Candida albicans): > 25 µg/mL | MIC (Klebsiella pneumoniae [12]; pH 7.2, strain Ad 18): 0.08 µg/mL (≈ 0.179 µM) | MIC (Klebsiella pneumoniae [12]; pH 7.2, strain Genta. adenyl 121): 0.08 µg/mL (≈ 0.179 µM) | MIC (Klebsiella pneumoniae [12]; pH 7.2, strain Genta. adenyl 3020): 7.5 µg/mL (≈ 16.8 µM) | MIC (Klebsiella pneumoniae [12]; pH 7.2, strain Genta. adenyl 3694): 7.5 µg/mL (≈ 16.8 µM) | MIC (Klebsiella pneumoniae [12]; pH 7.2, strain Kana. phos. Ad 22): 0.3 µg/mL (≈ 0.67 µM) | MIC (Escherichia coli [13]; ATCC10536, pH 7.2, strain ATCC 10536): 0.08 µg/mL (≈ 0.179 µM) | MIC (Escherichia coli [13]; pH 7.2, strain Baker 2): 0.3 µg/mL (≈ 0.67 µM) | MIC (Escherichia coli [13]; pH 7.2, strain Fl4-Bk): 0.3 µg/mL (≈ 0.67 µM) | MIC (Escherichia coli [13]; pH 7.2, strain Genta. adenyl LA290-R55): 17.5 µg/mL (≈ 39.1 µM) | MIC (Escherichia coli [13]; pH 7.2, strain Genta. adenyl W677/R55): 7.5 µg/mL (≈ 16.8 µM) | MIC (Escherichia coli [13]; pH 7.2, strain Kana. phosphor. 589): 0.8 µg/mL (≈ 1.79 µM) | MIC (Escherichia coli [13]; pH 7.2, strain Kana. phosphor. C-13): 0.3 µg/mL (≈ 0.67 µM) | MIC (Escherichia coli [13]; pH 7.2, strain Tobra. R 4195): 0.8 µg/mL (≈ 1.79 µM) | MIC (Salmonella typhimurium): 0.3 µg/mL (≈ 0.67 µM) | MIC (Bacillus subtilis [14]): 0.03 µg/mL (≈ 0.067 µM) | MIC (Aspergillus niger): > 25 µg/mL | MIC (Trichophyton rubrum): > 25 µg/mL | MIC (Streptococcus pyogenes [15]; pH 7.2, strain 27): 3 µg/mL (≈ 6.7 µM) | MIC (Streptococcus pyogenes [15]; pH 7.2, strain Alvarez): 3 µg/mL (≈ 6.7 µM) | MIC (Streptococcus pyogenes [15]; pH 7.2, strain C): 3 µg/mL (≈ 6.7 µM) | MIC (Streptococcus pyogenes [15]; pH 7.2, strain Cruz): 3 µg/mL (≈ 6.7 µM) | MIC (Streptococcus pyogenes [15]; pH 7.2, strain Karipeds): 0.8 µg/mL (≈ 1.79 µM) | MIC (Streptococcus pyogenes [15]; pH 7.2, strain Labay): 3 µg/mL (≈ 6.7 µM) | MIC (Serratia): 0.8 µg/mL (≈ 1.79 µM)
